Data taken from patent US11136320B2, “Fused ring derivative used as FGFR4 inhibitor” (JACOBIO PHARMACEUTICALS CO., LTD., priority 2019, dated 2021).

Columns and labels:
[1] = test system: Hepatoma cell Hep3B (high expression of FGFR4 and FGF19); experiment: Hepatoma cell proliferation inhibition experiment (MTS method); assay type: cell-based
FGFR4 kinase = FGFR4 kinase (Homo sapiens (Human), UniProt P22455)
Sequence of FGFR4 kinase (P22455 22-802): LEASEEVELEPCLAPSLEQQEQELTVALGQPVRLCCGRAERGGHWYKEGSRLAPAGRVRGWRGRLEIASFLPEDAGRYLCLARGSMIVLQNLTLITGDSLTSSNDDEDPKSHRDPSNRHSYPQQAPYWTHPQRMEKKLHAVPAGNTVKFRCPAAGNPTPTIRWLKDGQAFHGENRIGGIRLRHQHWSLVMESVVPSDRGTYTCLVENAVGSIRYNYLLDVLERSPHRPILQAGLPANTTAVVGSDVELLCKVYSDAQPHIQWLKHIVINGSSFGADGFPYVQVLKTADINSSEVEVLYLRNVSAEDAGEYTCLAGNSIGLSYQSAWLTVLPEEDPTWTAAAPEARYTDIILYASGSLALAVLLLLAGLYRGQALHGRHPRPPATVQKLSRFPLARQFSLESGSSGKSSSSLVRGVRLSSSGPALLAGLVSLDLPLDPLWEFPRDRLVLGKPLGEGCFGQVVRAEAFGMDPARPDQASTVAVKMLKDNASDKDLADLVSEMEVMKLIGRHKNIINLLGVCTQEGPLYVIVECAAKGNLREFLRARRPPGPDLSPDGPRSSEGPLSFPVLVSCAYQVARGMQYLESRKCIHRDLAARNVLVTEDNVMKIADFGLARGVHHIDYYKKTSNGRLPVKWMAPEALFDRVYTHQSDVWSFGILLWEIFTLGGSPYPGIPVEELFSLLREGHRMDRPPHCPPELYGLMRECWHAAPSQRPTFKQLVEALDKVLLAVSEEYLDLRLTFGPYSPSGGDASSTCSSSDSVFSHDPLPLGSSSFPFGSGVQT

Compound: CSC[C@@H](C)Nc1cc(NC(=O)N2CCCc3cc(CN4CCN(C)CC4=O)c(C=O)nc32)ncc1C#N [Compound 4, (R)—N-(5-Cyano-4-((1-(methylthio)propan-2-yl)amino)pyridin-2-yl)-7-formyl-6-((4-methyl-2-oxopiperazin-1-yl)methyl)-3,4-dihydro-1,8-naphthyridine-1 (2H)-carboxamide]
- inhibitory effect on Hepatoma cell Hep3B compared with the reference compound [1]: better inhibitory effect
- IC50 ([1]; Homo sapiens, Hep3B, 120 h incubation, read-out: Hep3B(IC50 μM)): 0.014 µM
- inhibitory effect on FGFR4 compared with the reference compound (FGFR4 kinase): better inhibitory effect on FGFR4 than the reference compound
